Assay [1] has as its system Enterococcus faecalis 2041. The assay can be described thus: MIC, standard agar-dilution assay. It is filed as cell-based. The procedure:
(§1) The formula I compounds have in vitro and in vivo activity against Gram-positive pathogenic bacteria. The MIC's were determined using a standard agar-dilution assays.
^c Formerly Streptococcus faecalis 2041

Assay [2] deals with Streptococcus pneumoniae Park 1. It is filed as cell-based. As for the experimental part:
as §1

Assay [3] concerns Staphylococcus aureus S13E. The assay is classed as cell-based. The procedure: as §1
Assay [4] concerns Streptococcus pyogenes. The assay can be described thus: In vivo activity, experimentally infected mice (ED50). Conditions: Streptococcus pyogenes infection; doses administered subcutaneously to mice 1 and 4 hours postinfection.
Assay [5] relates to Escherichia coli EC14. Nature of the assay: MIC, standard agar-dilution assay. It is filed as cell-based. As for the experimental part: as §1
The subject of assay [6] is Escherichia coli TEM. Nature of the assay: MIC, standard agar-dilution assay. The assay is classed as cell-based. As for the experimental part: as §1
The test system of assay [7] is Staphylococcus aureus X400. The assay can be described thus: MIC, standard agar-dilution assay. The assay is classed as cell-based. As for the experimental part:
as §1

In assay [8] the test system is Klebsiella pneumoniae X26. Nature of the assay: MIC, standard agar-dilution assay. The assay is classed as cell-based. The procedure: as §1
Assay [9] deals with Staphylococcus epidermidis EPI270. The assay can be described thus: MIC, standard agar-dilution assay. It is filed as cell-based. The procedure:
as §1

For assay [10], the system named is Staphylococcus aureus NRRL X1.1. Nature of the assay: MIC, standard agar-dilution assay. It is filed as cell-based. The procedure: as §1
In assay [11] the test system is Staphylococcus epidermidis 222. The assay can be described thus: MIC, standard agar-dilution assay. It is filed as cell-based. The procedure: as §1
For assay [12], the system named is Klebsiella pneumoniae X68. The assay can be described thus: MIC, standard agar-dilution assay. It is filed as cell-based. The procedure: as §1
The test system of assay [13] is Streptococcus pyogenes C203. The assay can be described thus: MIC, standard agar-dilution assay. The assay is classed as cell-based. The procedure:
as §1

Assay [14] deals with Klebsiella pneumoniae KAE. The assay can be described thus: MIC, standard agar-dilution assay. The assay is classed as cell-based. As for the experimental part: as §1
For assay [15], the system named is Staphylococcus aureus V41. Nature of the assay: MIC, standard agar-dilution assay. It is filed as cell-based. As for the experimental part:
as §1

The subject of assay [16] is Haemophilus influenzae 76. Nature of the assay: MIC, standard agar-dilution assay. The assay is classed as cell-based. The procedure:
as §1

Assay [17] deals with Haemophilus influenzae C.L. The assay can be described thus: MIC, standard agar-dilution assay. The assay is classed as cell-based. The procedure:
as §1

Assay [18] deals with Escherichia coli N10. Nature of the assay: MIC, standard agar-dilution assay. It is filed as cell-based. As for the experimental part:
as §1

The subject of assay [19] is Streptococcus pneumoniae. The assay can be described thus: In vivo activity, experimentally infected mice (ED50). Conditions: Streptococcus pneumoniae infection; doses administered subcutaneously to mice 1 and 4 hours postinfection.
In assay [20] the test system is Enterococcus faecium X66. Nature of the assay: MIC, standard agar-dilution assay. The assay is classed as cell-based. As for the experimental part:
as §1
^b Formerly Streptococcus faecium X66

≈ marks a conversion by molar mass, not a printed value.

With `CN[C@H](CC(C)C)C(=O)N[C@H]1C(=O)N[C@@H](CC(N)=O)C(=O)N[C@H]2C(=O)N[C@H]3C(=O)N[C@H](C(=O)N[C@H](C(=O)O)c4cc(O)cc(O)c4-c4cc3ccc4O)[C@H](O[C@H]3C[C@](C)(NCc4ccc(Cl)cc4)[C@@H](O)[C@H](C)O3)c3ccc(cc3)Oc3cc2cc(c3O[C@@H]2O[C@H](CO)[C@@H](O)[C@H](O)[C@H]2O[C@H]2C[C@](C)(N)[C@@H](O)[C@H](C)O2)Oc2ccc(cc2Cl)[C@H]1O` [Compound 21], the MIC result was “.5 mg/L” in [1]; “.5 mg/L” in assay [2]; “.25 mg/L” in [3]; above 128 mg/L in [5]; above 128 mg/L in assay [6]; “.5 mg/L” in [7]. Moreover, the MIC was above 128 mg/L in assay [8]; “.5 mg/L” in assay [9]; “.5 mg/L” in assay [10]; “.25 mg/L” in assay [11]; above 128 mg/L in [12]; “.5 mg/L” in assay [13]. Besides, the MIC in assay [14] was above 128 mg/L; in assay [15], “.5 mg/L”; in assay [16], above 128 mg/L; in [17], above 128 mg/L; in assay [18], above 128 mg/L; in assay [20] it was “.5 mg/L”. Besides, the values for the ED50 in assay [4] and in assay [19] were 0.29 mg/kg/2 and 0.47 mg/kg/2, respectively.
On to `CN[C@H](CC(C)C)C(=O)N[C@H]1C(=O)N[C@@H](CC(N)=O)C(=O)N[C@H]2C(=O)N[C@H]3C(=O)N[C@H](C(=O)N[C@H](C(=O)O)c4cc(O)cc(O)c4-c4cc3ccc4O)[C@H](O[C@H]3C[C@](C)(NCc4ccc(Cl)cc4)[C@@H](O)[C@H](C)O3)c3ccc(cc3)Oc3cc2cc(c3O[C@@H]2O[C@H](CO)[C@@H](O)[C@H](O)[C@H]2O[C@H]2C[C@](C)(NCc3ccc(Cl)cc3)[C@@H](O)[C@H](C)O2)Oc2ccc(cc2Cl)[C@H]1O` [Compound 23], for which the MIC was 4 mg/L (≈ 2.21 µM) in [1]; 1 mg/L (≈ 0.553 µM) in assay [2]; 2 mg/L (≈ 1.11 µM) in assay [3]; above 128 mg/L in assay [5]; above 128 mg/L in [6]; 2 mg/L (≈ 1.11 µM) in [7]. Further, the MIC is above 128 mg/L in [8]; 2 mg/L (≈ 1.11 µM) in assay [9]; 2 mg/L (≈ 1.11 µM) in assay [10]; 1 mg/L (≈ 0.553 µM) in assay [11]; above 128 mg/L in [12]; 2 mg/L (≈ 1.11 µM) in assay [13]. Moreover, the MIC in assay [14] is above 128 mg/L; in assay [15], 2 mg/L (≈ 1.11 µM); in assay [16] it was above 128 mg/L; in [17], above 128 mg/L; in assay [18] it was above 128 mg/L; in assay [20], 4 mg/L (≈ 2.21 µM). For the same compound, the ED50 in [4] is given as 0.8 mg/kg/2; in assay [19], 1.02 mg/kg/2.
For `CCCCCCCCc1ccc(CNC2(C)CC(OC3C(Oc4c5cc6cc4Oc4ccc(cc4Cl)C(OC4CC(C)(N)C(O)C(C)O4)C4NC(=O)C(NC(=O)C6NC(=O)C(CC(N)=O)NC(=O)C(NC(=O)C(CC(C)C)NC)C(O)c6ccc(c(Cl)c6)O5)c5ccc(O)c(c5)-c5c(O)cc(O)cc5C(C(=O)O)NC4=O)OC(CO)C(O)C3O)OC(C)C2O)cc1` (stereo not shown) [Compound 54], the MIC was 64 mg/L (≈ 35.7 µM) in assay [1]; 4 mg/L (≈ 2.23 µM) in assay [2]; 64 mg/L (≈ 35.7 µM) in assay [3]; above 128 mg/L in assay [5]; above 128 mg/L in assay [6]; 64 mg/L (≈ 35.7 µM) in [7]. Moreover, the MIC in assay [8] was above 128 mg/L; in [9], 64 mg/L (≈ 35.7 µM); in assay [10], 32 mg/L (≈ 17.8 µM); in assay [11], 64 mg/L (≈ 35.7 µM); in assay [12], above 128 mg/L; in assay [13] it was 8 mg/L (≈ 4.46 µM). The MIC is above 128 mg/L in assay [14]; 64 mg/L (≈ 35.7 µM) in assay [15]; above 128 mg/L in [16]; above 128 mg/L in [17]; above 128 mg/L in assay [18]; 64 mg/L (≈ 35.7 µM) in assay [20]. The compound also returned an ED50 in [4] of 0.91 mg/kg/2.
As for `CCCCCCCCOc1ccc(CNC2(C)CC(OC3C(Oc4c5cc6cc4Oc4ccc(cc4Cl)C(OC4CC(C)(N)C(O)C(C)O4)C4NC(=O)C(NC(=O)C6NC(=O)C(CC(N)=O)NC(=O)C(NC(=O)C(CC(C)C)NC)C(O)c6ccc(c(Cl)c6)O5)c5ccc(O)c(c5)-c5c(O)cc(O)cc5C(C(=O)O)NC4=O)OC(CO)C(O)C3O)OC(C)C2O)cc1` (stereo not shown) [Compound 55], the MIC in [1] is 8 mg/L (≈ 4.42 µM); in [2], 2 mg/L (≈ 1.1 µM); in assay [3], 8 mg/L (≈ 4.42 µM); in assay [5], above 128 mg/L; in [6] it was above 128 mg/L; in assay [7], 16 mg/L (≈ 8.84 µM). The MIC was above 128 mg/L in assay [8]; 16 mg/L (≈ 8.84 µM) in assay [9]; 8 mg/L (≈ 4.42 µM) in assay [10]; 8 mg/L (≈ 4.42 µM) in assay [11]; above 128 mg/L in [12]; 4 mg/L (≈ 2.21 µM) in assay [13]. Moreover, the MIC in assay [14] is above 128 mg/L; in [15], 4 mg/L (≈ 2.21 µM); in assay [16], above 128 mg/L; in assay [17], above 128 mg/L; in [18], above 128 mg/L; in assay [20] it was 8 mg/L (≈ 4.42 µM). In assay [4], this compound showed an ED50 of 0.73 mg/kg/2.
Turning to `CCCCCCC(=O)NC1(C)CC(OC2c3ccc(c(Cl)c3)Oc3cc4cc(c3OC3OC(CO)C(O)C(O)C3OC3CC(C)(N)C(O)C(C)O3)Oc3ccc(cc3Cl)C(O)C(NC(=O)C(CC(C)C)NC)C(=O)NC(CC(N)=O)C(=O)NC4C(=O)NC3C(=O)NC2C(=O)NC(C(=O)O)c2cc(O)cc(O)c2-c2cc3ccc2O)OC(C)C1O` (stereo not shown) [Compound 69], the MIC was 1 mg/L (≈ 0.587 µM) in [1]; “.5 mg/L” in assay [2]; 2 mg/L (≈ 1.17 µM) in assay [3]; above 128 mg/L in assay [5]; above 128 mg/L in assay [6]; 4 mg/L (≈ 2.35 µM) in [7]. Also, the MIC in assay [8] was above 128 mg/L; in [9] it was 8 mg/L (≈ 4.69 µM); in assay [10] it was 1 mg/L (≈ 0.587 µM); in [11], 2 mg/L (≈ 1.17 µM); in assay [12] it was above 128 mg/L; in [13], 1 mg/L (≈ 0.587 µM). For the same compound, the MIC is above 128 mg/L in assay [14]; 2 mg/L (≈ 1.17 µM) in assay [15]; above 128 mg/L in assay [16]; above 128 mg/L in [17]; above 128 mg/L in assay [18]; 2 mg/L (≈ 1.17 µM) in [20]. This compound gave an ED50 in assay [4] below 0.62 mg/kg/2.
Consider `CCCCCNC1(C)CC(OC2c3ccc(cc3)Oc3cc4cc(c3O)Oc3ccc(cc3Cl)C(O)C(NC(=O)C(CC(C)C)NC)C(=O)NC(CC(N)=O)C(=O)NC4C(=O)NC3C(=O)NC2C(=O)NC(C(=O)O)c2cc(O)cc(O)c2-c2cc3ccc2O)OC(C)C1O` (stereo not shown) [Compound 74], for which the MIC was 8 mg/L (≈ 6.05 µM) in [1]; 4 mg/L (≈ 3.02 µM) in [2]; 4 mg/L (≈ 3.02 µM) in assay [3]; above 128 mg/L in assay [5]; above 128 mg/L in assay [6]; 4 mg/L (≈ 3.02 µM) in assay [7]. Also, the MIC in [8] was above 128 mg/L; in assay [9], 2 mg/L (≈ 1.51 µM); in [10] it was 4 mg/L (≈ 3.02 µM); in assay [11] it was 4 mg/L (≈ 3.02 µM); in assay [12] it was above 128 mg/L; in [13], 4 mg/L (≈ 3.02 µM). The MIC in [14] was above 128 mg/L; in assay [15], 4 mg/L (≈ 3.02 µM); in assay [16], above 128 mg/L; in assay [17], above 128 mg/L; in assay [18], above 128 mg/L; in assay [20] it was 8 mg/L (≈ 6.05 µM).
Turning to `CCCCCNC1(C)CC(OC2c3ccc(c(Cl)c3)Oc3cc4cc(c3OC3OC(CO)C(O)C(O)C3O)Oc3ccc(cc3Cl)C(O)C(NC(=O)C(CC(C)C)NC)C(=O)NC(CC(N)=O)C(=O)NC4C(=O)NC3C(=O)NC2C(=O)NC(C(=O)O)c2cc(O)cc(O)c2-c2cc3ccc2O)OC(C)C1O` (stereo not shown) [Compound 77], the MIC in assay [1] is 2 mg/L (≈ 1.32 µM); in [2] it was “.5 mg/L”; in assay [3], “.5 mg/L”; in assay [5], above 128 mg/L; in assay [6], above 128 mg/L; in assay [7], 1 mg/L (≈ 0.658 µM). Besides, the MIC in assay [8] is above 128 mg/L; in [9], 8 mg/L (≈ 5.27 µM); in [10] it was “.5 mg/L”; in assay [11] it was 1 mg/L (≈ 0.658 µM); in [12] it was above 128 mg/L; in assay [13] it was “.25 mg/L”. Also, the MIC in assay [14] was above 128 mg/L; in [15] it was “.5 mg/L”; in [16] it was 128 mg/L (≈ 84.2 µM); in assay [17], 128 mg/L (≈ 84.2 µM); in assay [18], above 128 mg/L; in assay [20] it was 2 mg/L (≈ 1.32 µM).
